Measurements from US8168651B2, “Protein kinase modulators” (Cylene Pharmaceuticals, Inc., priority 2008, dated 2012).

What was measured:
Assay in all cases: Standardized radiometric kinase assays, percentage of activity at 0.5 μM;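 further: Read-out is ³³P-labelled substrate protein phosphorylated by each kinase, captured on filters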
[1] = target: each individual kinase of the panel (Homo sapiens, UniProt P16591)
[2] = target: each individual kinase of the panel (Homo sapiens, UniProt Q13464)
[3] = target: each individual kinase of the panel (Homo sapiens, UniProt O60285)
[4] = target: each individual kinase of the panel (Homo sapiens, UniProt P54760)
[5] = target: each individual kinase of the panel (Homo sapiens, UniProt O14965)
[6] = target: each individual kinase of the panel (Homo sapiens, UniProt Q9UK32)
[7] = target: each individual kinase of the panel (Homo sapiens, UniProt P36888, D835Y)
[8] = target: each individual kinase of the panel (Homo sapiens, UniProt O60674)
[9] = target: each individual kinase of the panel (Homo sapiens, UniProt P41240)
each individual kinase of the panel (Homo sapiens, UniProt P41240), sequence (P41240 2-450 limits assumed): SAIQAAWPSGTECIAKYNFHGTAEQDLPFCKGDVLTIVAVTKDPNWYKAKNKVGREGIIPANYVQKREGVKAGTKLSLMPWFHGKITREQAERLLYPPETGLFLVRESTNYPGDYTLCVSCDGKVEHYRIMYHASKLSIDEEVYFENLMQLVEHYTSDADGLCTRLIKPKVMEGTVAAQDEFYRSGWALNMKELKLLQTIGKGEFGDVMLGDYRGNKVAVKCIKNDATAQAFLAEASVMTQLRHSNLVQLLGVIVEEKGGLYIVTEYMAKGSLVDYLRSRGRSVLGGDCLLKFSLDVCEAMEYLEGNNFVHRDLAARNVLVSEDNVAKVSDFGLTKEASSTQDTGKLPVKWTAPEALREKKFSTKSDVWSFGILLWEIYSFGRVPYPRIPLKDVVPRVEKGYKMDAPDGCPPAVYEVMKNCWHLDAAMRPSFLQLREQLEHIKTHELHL

[10] = target: each individual kinase of the panel (Homo sapiens, UniProt P04629)
[11] = target: each individual kinase of the panel (Homo sapiens, UniProt P12931)
each individual kinase of the panel (Homo sapiens, UniProt P12931), sequence (P12931 2-536 limits assumed): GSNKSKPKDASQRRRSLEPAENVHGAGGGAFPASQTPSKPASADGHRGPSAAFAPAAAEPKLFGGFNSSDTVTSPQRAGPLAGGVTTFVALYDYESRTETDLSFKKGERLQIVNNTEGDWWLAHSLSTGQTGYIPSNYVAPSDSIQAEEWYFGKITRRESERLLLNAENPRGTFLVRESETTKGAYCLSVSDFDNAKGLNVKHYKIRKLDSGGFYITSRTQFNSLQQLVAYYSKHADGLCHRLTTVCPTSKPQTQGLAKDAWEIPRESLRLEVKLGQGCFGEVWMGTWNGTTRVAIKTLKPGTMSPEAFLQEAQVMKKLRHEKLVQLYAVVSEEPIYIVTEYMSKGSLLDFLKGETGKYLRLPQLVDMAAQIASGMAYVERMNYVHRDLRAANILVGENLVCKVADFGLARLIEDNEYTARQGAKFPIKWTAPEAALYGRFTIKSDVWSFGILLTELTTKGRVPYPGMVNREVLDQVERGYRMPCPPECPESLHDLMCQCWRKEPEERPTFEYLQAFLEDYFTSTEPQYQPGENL

[12] = target: each individual kinase of the panel (Homo sapiens, UniProt P10721, D816H)
each individual kinase of the panel (Homo sapiens, UniProt P10721, D816H), sequence (P10721 26-976 D816H limits assumed): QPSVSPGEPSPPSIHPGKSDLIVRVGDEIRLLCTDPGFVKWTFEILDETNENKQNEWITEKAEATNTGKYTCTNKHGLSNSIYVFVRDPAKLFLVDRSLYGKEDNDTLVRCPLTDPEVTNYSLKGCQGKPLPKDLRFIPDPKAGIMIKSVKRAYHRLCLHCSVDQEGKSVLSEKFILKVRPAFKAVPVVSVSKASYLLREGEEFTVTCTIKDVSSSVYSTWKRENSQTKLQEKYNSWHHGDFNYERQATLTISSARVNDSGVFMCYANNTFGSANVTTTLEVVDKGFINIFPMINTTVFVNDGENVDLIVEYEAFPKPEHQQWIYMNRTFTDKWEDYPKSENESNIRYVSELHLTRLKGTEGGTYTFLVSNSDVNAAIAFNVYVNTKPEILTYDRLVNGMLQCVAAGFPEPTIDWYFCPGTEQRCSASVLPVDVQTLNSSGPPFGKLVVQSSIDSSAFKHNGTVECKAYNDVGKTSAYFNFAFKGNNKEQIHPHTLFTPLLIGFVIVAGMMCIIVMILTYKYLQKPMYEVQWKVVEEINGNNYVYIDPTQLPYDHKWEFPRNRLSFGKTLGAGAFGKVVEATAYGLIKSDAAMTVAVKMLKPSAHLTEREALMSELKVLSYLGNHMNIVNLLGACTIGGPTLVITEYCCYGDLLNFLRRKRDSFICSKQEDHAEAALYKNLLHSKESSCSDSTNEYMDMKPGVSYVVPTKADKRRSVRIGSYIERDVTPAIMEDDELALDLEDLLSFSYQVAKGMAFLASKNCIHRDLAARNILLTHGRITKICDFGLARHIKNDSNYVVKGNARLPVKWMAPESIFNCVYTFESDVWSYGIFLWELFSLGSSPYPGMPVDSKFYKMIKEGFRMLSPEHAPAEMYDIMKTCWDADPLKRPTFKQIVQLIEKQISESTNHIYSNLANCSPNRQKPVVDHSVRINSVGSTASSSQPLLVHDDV

[13] = target: each individual kinase of the panel (Homo sapiens, UniProt P07332)
[14] = target: each individual kinase of the panel (Homo sapiens, UniProt P00533, L861Q)
[15] = target: each individual kinase of the panel (Homo sapiens, UniProt P49841)
[16] = target: each individual kinase of the panel (Homo sapiens, UniProt P10721)
each individual kinase of the panel (Homo sapiens, UniProt P10721), sequence (P10721 26-976 limits assumed): as the sequence (P10721 26-976 D816H limits assumed) above, with H791D counted along it

[17] = target: each individual kinase of the panel (Homo sapiens, UniProt Q02763)
each individual kinase of the panel (Homo sapiens, UniProt Q02763), sequence (Q02763 23-1124 limits assumed): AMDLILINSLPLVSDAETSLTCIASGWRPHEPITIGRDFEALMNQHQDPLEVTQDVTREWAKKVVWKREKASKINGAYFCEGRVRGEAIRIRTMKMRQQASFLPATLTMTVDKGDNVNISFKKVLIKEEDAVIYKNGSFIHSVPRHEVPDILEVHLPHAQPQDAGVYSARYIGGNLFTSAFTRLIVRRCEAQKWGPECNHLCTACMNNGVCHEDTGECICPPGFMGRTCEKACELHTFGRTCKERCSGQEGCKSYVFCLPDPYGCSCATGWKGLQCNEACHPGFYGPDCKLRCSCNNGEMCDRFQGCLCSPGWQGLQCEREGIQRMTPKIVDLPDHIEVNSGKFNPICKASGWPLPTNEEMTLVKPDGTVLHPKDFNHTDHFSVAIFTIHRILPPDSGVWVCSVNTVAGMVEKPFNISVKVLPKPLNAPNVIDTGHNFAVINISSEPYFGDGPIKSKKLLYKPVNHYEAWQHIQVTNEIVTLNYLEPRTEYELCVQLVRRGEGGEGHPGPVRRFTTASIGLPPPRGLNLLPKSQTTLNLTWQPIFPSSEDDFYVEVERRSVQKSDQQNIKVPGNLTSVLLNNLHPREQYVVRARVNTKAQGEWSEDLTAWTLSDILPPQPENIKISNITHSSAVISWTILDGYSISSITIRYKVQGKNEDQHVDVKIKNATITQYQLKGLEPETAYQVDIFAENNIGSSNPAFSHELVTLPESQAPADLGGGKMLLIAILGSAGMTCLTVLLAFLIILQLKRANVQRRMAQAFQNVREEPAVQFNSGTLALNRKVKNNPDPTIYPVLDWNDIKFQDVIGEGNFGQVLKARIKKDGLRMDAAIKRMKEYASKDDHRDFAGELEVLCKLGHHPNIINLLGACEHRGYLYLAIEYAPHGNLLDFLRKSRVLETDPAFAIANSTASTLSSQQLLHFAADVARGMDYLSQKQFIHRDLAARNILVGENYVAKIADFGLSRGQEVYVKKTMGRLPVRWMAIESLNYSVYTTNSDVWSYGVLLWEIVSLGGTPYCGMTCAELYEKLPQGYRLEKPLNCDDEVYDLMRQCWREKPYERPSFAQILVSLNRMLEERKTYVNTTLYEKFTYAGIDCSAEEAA

[18] = target: each individual kinase of the panel (Homo sapiens, UniProt O75676)
[19] = target: each individual kinase of the panel (Homo sapiens, UniProt P17252)
[20] = target: each individual kinase of the panel (Homo sapiens, UniProt Q15349)
[21] = target: each individual kinase of the panel (Homo sapiens, UniProt P07949)
[22] = target: each individual kinase of the panel (Homo sapiens, UniProt P08631)
[23] = target: each individual kinase of the panel (Homo sapiens, UniProt O94804)
[24] = target: each individual kinase of the panel (Homo sapiens, UniProt P35916)
each individual kinase of the panel (Homo sapiens, UniProt P35916), sequence (P35916 25-1363 limits assumed): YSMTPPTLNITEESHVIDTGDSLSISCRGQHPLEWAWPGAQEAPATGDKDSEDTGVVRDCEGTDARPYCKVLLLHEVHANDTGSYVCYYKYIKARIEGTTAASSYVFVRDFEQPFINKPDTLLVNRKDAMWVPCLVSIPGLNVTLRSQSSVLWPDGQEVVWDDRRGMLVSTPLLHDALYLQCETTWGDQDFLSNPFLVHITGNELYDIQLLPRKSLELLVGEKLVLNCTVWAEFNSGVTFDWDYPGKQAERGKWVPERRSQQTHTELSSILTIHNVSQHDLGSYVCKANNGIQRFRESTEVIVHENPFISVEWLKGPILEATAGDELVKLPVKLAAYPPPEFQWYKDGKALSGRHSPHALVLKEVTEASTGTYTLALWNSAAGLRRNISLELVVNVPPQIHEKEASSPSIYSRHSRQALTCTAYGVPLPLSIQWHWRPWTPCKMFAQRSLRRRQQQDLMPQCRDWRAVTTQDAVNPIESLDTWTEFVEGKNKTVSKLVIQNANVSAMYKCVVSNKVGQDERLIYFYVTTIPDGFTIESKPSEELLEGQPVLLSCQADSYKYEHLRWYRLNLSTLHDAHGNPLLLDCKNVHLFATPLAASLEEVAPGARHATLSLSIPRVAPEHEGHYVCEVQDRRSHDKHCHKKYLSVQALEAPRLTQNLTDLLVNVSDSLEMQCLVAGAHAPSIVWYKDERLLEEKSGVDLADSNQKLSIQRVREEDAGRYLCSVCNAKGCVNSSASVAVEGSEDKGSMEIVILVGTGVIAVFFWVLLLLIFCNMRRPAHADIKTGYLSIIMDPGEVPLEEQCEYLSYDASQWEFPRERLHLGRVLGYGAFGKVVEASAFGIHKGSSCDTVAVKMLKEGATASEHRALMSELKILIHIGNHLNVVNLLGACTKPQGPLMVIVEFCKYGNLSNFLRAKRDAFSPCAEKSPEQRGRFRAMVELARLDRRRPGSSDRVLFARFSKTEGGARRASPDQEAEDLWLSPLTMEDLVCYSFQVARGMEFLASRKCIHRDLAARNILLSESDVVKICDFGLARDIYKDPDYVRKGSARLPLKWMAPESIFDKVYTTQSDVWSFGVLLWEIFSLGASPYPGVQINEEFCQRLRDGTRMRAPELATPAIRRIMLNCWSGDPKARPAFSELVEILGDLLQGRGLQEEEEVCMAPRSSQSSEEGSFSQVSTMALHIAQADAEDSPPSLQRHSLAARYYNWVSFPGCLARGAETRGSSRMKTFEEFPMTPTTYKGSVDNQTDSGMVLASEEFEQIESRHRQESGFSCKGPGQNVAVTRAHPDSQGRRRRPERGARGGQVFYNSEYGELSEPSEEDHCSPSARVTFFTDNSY

[25] = target: each individual kinase of the panel (Homo sapiens, UniProt P36888)
[26] = target: each individual kinase of the panel (Homo sapiens, UniProt Q13177)
each individual kinase of the panel (Homo sapiens, UniProt Q13177), sequence (Q13177 2-524 limits assumed): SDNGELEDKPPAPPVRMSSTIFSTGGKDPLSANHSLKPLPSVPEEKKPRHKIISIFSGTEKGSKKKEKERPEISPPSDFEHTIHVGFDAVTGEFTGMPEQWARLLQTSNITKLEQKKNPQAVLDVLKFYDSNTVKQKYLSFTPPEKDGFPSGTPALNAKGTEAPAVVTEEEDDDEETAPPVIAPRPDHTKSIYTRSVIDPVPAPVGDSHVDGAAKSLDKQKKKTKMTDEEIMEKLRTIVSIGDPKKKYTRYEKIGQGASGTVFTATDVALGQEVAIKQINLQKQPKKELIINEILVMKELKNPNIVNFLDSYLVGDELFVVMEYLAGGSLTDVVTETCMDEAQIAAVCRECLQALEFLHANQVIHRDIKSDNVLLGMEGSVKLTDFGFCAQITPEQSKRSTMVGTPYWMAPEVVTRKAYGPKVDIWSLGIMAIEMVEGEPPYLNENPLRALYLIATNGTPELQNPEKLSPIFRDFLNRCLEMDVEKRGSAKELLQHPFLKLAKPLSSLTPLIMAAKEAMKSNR

[27] = target: each individual kinase of the panel (Homo sapiens, UniProt P06241)
[28] = target: each individual kinase of the panel (Homo sapiens, UniProt Q96SB4)

Structure (SMILES): C#Cc1cccc(Nc2nc3cc(C(=O)O)ccc3c3cnccc23)c1 [drawing 1137]
- FER percentage of activity [1]: 6%
- ROCK-I percentage of activity [2]: 12%
- ARK5 percentage of activity [3]: 14%
- EPHB4 percentage of activity [4]: −8%
- AURKA percentage of activity [5]: 3%
- RPS6KA6 percentage of activity [6]: 65%
- FLT3(D835Y) percentage of activity [7]: 97%
- JAK2 percentage of activity [8]: 38%
- CSK percentage of activity [9]: −9%
- TRKA percentage of activity [10]: 56%
- SRC percentage of activity [11]: 22%
- Src(1-530) percentage of activity [11]: 11%
- cKit(D816H) percentage of activity [12]: 87%
- FES percentage of activity [13]: 1%
- EGFR(L861Q) percentage of activity [14]: 59%
- GSK3B percentage of activity [15]: 28%
- cKit(h) percentage of activity [16]: 15%
- TIE2 percentage of activity [17]: −12%
- MSK2 percentage of activity [18]: 41%
- PRKCA percentage of activity [19]: 9%
- RPS6KA2 percentage of activity [20]: 59%
- RET percentage of activity [21]: 35%
- HCK percentage of activity [22]: 26%
- LOK percentage of activity [23]: 72%
- FLT4 percentage of activity [24]: 101%
- FLT3 percentage of activity [25]: 90%
- PAK2 percentage of activity [26]: 1%
- FYN percentage of activity [27]: 18%
- SRPK1 percentage of activity [28]: 63%
